Measurements reported in US20230174485A1, “LIPOXYGENASE INHIBITORS” (SRI International, priority 2020, published 2023).
Where “and” joins values, the source holds several entries; their conditions need not be identical. Identical values can stand only once.

How the values were obtained:
Assay type in all cases: biochemical
recombinant 5-LOX = target: T1, recombinant 5-LOX (Homo sapiens, UniProt P09917); assay: 5-LOX fluorescent assay; conditions: several values in one cell = repeat determinations; read-out: IC50 (μM) values for in vitro lipoxygenase inhibition, 5-LOX
T1 sequence (P09917 1-674): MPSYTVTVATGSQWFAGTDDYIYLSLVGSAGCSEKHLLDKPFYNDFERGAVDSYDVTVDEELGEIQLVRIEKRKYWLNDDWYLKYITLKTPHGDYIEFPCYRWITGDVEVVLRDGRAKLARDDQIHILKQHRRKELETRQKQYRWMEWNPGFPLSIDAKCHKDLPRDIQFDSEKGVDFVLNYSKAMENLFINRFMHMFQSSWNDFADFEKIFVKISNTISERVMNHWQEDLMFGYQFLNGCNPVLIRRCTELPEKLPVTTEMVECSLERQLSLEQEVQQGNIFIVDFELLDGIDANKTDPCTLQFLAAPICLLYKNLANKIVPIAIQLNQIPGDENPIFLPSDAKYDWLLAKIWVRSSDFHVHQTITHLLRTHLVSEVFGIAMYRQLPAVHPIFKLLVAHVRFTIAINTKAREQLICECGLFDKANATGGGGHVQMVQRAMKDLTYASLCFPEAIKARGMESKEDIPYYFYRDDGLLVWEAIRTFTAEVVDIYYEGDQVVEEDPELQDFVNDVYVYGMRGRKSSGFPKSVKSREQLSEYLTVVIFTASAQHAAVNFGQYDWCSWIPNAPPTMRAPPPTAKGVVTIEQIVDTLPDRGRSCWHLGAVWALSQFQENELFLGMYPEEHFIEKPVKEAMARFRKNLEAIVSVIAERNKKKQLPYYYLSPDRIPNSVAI
In short: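 Lysate containing recombinant 5-LOX was pre-incubated 15 min with compounds in 50 mM Tris pH 7.5, 0.1 mM EDTA, 0.3 mM CaCl2. The reaction was started with 20 μM arachidonic acid, 100 μM ATP and 1 μM DHR123.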

[1] = target: T2, recombinant 12-LOX enzyme (Homo sapiens, UniProt P18054); assay: 12-LOX fluorescent assay; conditions: several values in one cell = repeat determinations; read-out: IC50 (μM) values for in vitro lipoxygenase inhibition, 12-LOX
T2 sequence (P18054 1-663): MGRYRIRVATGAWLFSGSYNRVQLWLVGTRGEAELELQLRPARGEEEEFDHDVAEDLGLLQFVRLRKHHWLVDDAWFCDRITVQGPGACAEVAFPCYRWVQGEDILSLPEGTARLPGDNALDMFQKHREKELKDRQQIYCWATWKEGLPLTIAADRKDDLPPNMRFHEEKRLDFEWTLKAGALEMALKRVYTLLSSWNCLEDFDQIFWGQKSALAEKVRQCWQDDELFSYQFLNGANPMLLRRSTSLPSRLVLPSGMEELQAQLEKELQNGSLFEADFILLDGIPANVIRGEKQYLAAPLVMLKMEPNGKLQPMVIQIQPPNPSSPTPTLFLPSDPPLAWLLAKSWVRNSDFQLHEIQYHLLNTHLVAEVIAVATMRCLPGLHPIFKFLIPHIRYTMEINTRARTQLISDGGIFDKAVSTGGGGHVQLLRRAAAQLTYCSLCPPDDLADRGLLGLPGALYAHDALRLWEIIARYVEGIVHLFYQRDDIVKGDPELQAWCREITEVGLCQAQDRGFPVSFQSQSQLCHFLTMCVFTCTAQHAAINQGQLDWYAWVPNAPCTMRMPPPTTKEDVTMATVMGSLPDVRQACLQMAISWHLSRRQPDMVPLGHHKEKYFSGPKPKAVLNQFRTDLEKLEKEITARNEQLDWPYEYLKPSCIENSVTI
In short: (§1)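 Compounds pre-incubated 15 min with 100 nM 12-LOX or 50 nM 15-LOX in 50 mM Tris pH 7.5, 0.05% Tween-20; reaction started with 20 μM AA/LA plus 1 μM DHR123.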

[2] = target: T3, recombinant 15-LOX enzyme (Homo sapiens, UniProt P16050); assay: 15-LOX fluorescent assay; conditions: several values in one cell = repeat determinations; read-out: IC50 (μM) values for in vitro lipoxygenase inhibition, 15-LOX
T3 sequence (P16050 1-662): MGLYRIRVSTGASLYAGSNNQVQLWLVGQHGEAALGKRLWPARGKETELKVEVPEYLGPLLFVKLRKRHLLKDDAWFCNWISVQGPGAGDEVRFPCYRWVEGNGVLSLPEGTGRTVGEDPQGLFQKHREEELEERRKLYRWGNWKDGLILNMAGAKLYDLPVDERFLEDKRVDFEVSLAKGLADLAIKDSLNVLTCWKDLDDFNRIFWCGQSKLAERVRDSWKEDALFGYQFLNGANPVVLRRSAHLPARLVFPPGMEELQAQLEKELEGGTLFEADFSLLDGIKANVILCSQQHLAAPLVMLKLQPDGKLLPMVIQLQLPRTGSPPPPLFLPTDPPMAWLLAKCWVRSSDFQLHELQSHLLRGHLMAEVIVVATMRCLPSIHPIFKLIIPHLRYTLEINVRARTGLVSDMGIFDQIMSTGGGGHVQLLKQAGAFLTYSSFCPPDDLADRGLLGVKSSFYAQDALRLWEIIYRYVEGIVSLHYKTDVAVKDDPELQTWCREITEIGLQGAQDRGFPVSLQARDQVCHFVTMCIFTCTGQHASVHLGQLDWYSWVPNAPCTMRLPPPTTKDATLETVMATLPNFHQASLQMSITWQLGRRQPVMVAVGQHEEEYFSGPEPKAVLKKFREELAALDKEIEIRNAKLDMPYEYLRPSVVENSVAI
In short: as §1

Row | Compound | IC50 (recombinant 5-LOX) | IC50 [1] | IC50 [2]
1 | Clc1cc2c(cc1NCCn1cncn1)Nc1ccccc1CC2 [SS20308-0251-01, N-(2-(1H-1,2,4-triazol-1-yl)ethyl)-2-chloro-10,11-dihydro-5H-dibenzo[b,f]azepin-3-amine] | 0.45 µM and 0.56 µM | 0.05 µM and 0.22 µM | 0.75 µM and 0.73 µM
2 | CN(C)CCc1cc(Nc2cccc(Cl)c2)cc2c1[nH]c1ccccc12 [SS20308-0258-01, N-(3-chlorophenyl)-1-(2-(dimethylamino)ethyl)-9H-carbazol-3-amine] | 0.06 µM and 0.08 µM | 0.16 µM | 0.09 µM and 0.55 µM
3 | c1ccc2c(c1)CCc1cc(C3CCCCC3)c(NCCn3cncn3)cc1N2 [SS20308-0271-01, N-(2-(1H-1,2,4-triazol-1-yl)ethyl)-2-cyclohexyl-10,11-dihydro-5H-dibenzo[b,f]azepin-3-amine] | 0.15 µM and 0.17 µM | 0.11 µM and 0.12 µM | 0.28 µM and 0.32 µM
4 | Clc1c(NCCn2cncn2)ccc2c1Nc1ccccc1CC2 [SS20308-0273-01, N-(2-(1H-1,2,4-triazol-1-yl)ethyl)-4-chloro-10,11-dihydro-5H-dibenzo [b,f]azepin-3-amine] | 5.6 µM | 2.66 µM | 9.82 µM
5 | c1ccc2c(c1)CCc1cc(NCCn3cncn3)ccc1N2 [SS20308-0276-01, N-(2-(1H-1,2,4-triazol-1-yl)ethyl)-10,11-dihydro-5H-dibenzo[b,f]azepin-2-amine] | 0.13 µM and 0.06 µM | 0.03 µM and 0.02 µM | 0.28 µM and 0.1 µM
6 | CN(C)CCc1cc(Nc2cccnc2)cc2c1[nH]c1ccccc12 [SS20308-0291-01, 1-(2-(dimethylamino)ethyl)-N-(pyridin-3-yl)-9H-carbazol-3-amine] | 0.06 µM and 0.12 µM | 0.05 µM and 0.06 µM | 0.02 µM and 0.16 µM
7 | Fc1ccc2[nH]c3cc(C(F)(F)F)c(NCC4(Cn5cncn5)COC4)cc3c2c1 [SS20308-0295-01, N-((3-((1H-1,2,4-triazol-1-yl)methyl)oxetan-3-yl)methyl)-6-fluoro-2-(trifluoromethyl)-9H-carbazol-3-amine] | 0.66 µM | 0.22 µM | 0.49 µM

More lines, now with the values ahead:

Row | IC50 (recombinant 5-LOX) | IC50 [1] | IC50 [2] | Compound
8 | 0.19 µM | 0.03 µM | 0.2 µM | Cc1cc2[nH]c3ccc(F)cc3c2cc1NCC1(Cn2cncn2)COC1 [SS20308-0233-01, N-((3-((1H-1,2,4-triazol-1-yl)methyl)oxetan-3-yl)methyl)-6-fluoro-2-methyl-9H-carbazol-3-amine]
9 | 0.2 µM | 0.03 µM | 1.13 µM | Fc1cccc2c1[nH]c1cc3c(cc12)CCN3CCn1cncn1 [SS20308-0243-01, 1-(2-(1H-1,2,4-triazol-1-yl)ethyl)-8-fluoro-1,2,3,9-tetrahydropyrrolo[2,3-b]car bazole]
10 | 0.55 µM | 0.11 µM | 0.55 µM | c1ccc2c(c1)CCc1cc(C3CC3)c(NCCn3cncn3)cc1N2 [SS20308-0269-01, N-(2-(1H-1,2,4-triazol-1-yl)ethyl)-2-cyclopropyl-10,11-dihydro-5H-dibenzo[b,f]azepin-3-amine]
11 | 0.15 µM | 0.1 µM | 1.08 µM and 0.9 µM | CN(C)CCCNc1ccc2c(c1)Nc1ccccc1CC2 [SS20308-0270-01, N^1-(10,11-dihydro-5H-dibenzo[b,f]azepin-3-yl)-N^3,N^3-dimethylpropane-1,3-diamine]
12 | 0.32 µM | 0.04 µM | 0.57 µM | CN(C)CCc1cc(Nc2ccc(F)cc2Cl)cc2c1[nH]c1ccccc12 [SS20308-0277-01, N-(2-chloro-4-fluorophenyl)-1-(2-(dimethylamino)ethyl)-9H-carbazol-3-amine]
13 | 0.12 µM | 0.09 µM | 0.9 µM | c1ccc2c(c1)CCc1ccc(NCCCN3CCOCC3)cc1N2 [SS20308-0303-01, N-(3-morpholinopropyl)-10,11-dihydro-5H-dibenzo[b,f]azepin-3-amine]
14 | 0.2 µM | 0.09 µM | 0.4 µM | Fc1cc2[nH]c3ccccc3c2cc1NCC1(Cn2cncn2)COC1 [SS20308-0304-01, N-((3-((1H-1,2,4-triazol-1-yl)methyl)oxetan-3-yl)methyl)-2-fluoro-9H-carbazol-3-amine]
15 | 0.2 µM | 0.14 µM | 0.58 µM | c1ccc2c(c1)CCc1cc(C3CCOCC3)c(NCCn3cncn3)cc1N2 [SS20308-0305-01, N-(2-(1H-1,2,4-triazol-1-yl)ethyl)-2-(tetrahydro-2H-pyran-4-yl)-10,11-dihydro-5H-dibenzo[b,f]azepin-3-amine]
16 | 0.09 µM | 0.03 µM | 0.15 µM | Fc1c(NCC2(Cn3cncn3)COC2)ccc2[nH]c3ccccc3c12 [SS20308-0312-01, N-((3-((1H-1,2,4-triazol-1-yl)methyl)oxetan-3-yl)methyl)-4-fluoro-9H-carbazol-3-amine]
